Reference: the supplement of paper PMC10307832

Columns and labels:
Test in all cases: relative viability (nuclei count vs DMSO), 5 days (fraction); higher = more cells survive
[1] = compound: COc1cc(-c2nn([C@H]3CC[C@H](N4CCN(C(C)=O)CC4)CC3)c3ncnc(N)c23)ccc1NC(=O)c1cc2ccccc2n1C + COc1cc2c(Oc3ccc(NC(=O)C4(C(=O)Nc5ccc(F)cc5)CC4)cc3F)ccnc2cc1OCCCN1CCOCC1 [Foretinib] (partner 0.25 µM)
Outline: (§1)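 Each reported value is a median over duplicate plates. It expresses relative viability: treated-well nuclei count divided by vehicle-well nuclei count. Lung cancer cell lines in 1536-well plates were dosed by pin tool a day after seeding, alone with one drug or with a fixed anchor-drug dose plus five library-drug doses (not always all listed) in √10 steps, and nuclei were counted after 5 days.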

Midostaurin + Navitoclax = compound: CO[C@@H]1[C@H](N(C)C(=O)c2ccccc2)C[C@H]2O[C@]1(C)n1c3ccccc3c3c4c(c5c6ccccc6n2c5c31)C(=O)NC4 [Midostaurin] + CC1(C)CCC(c2ccc(Cl)cc2)=C(CN2CCN(c3ccc(C(=O)NS(=O)(=O)c4ccc(N[C@H](CCN5CCOCC5)CSc5ccccc5)c(S(=O)(=O)C(F)(F)F)c4)cc3)CC2)C1 [Navitoclax] (partner 0.5 µM)
Outline: as §1

[2] = compound: COc1cc(-c2nn([C@H]3CC[C@H](N4CCN(C(C)=O)CC4)CC3)c3ncnc(N)c23)ccc1NC(=O)c1cc2ccccc2n1C + CS(=O)(=O)CCNCc1ccc(-c2ccc3ncnc(Nc4ccc(OCc5cccc(F)c5)c(Cl)c4)c3c2)o1 [Lapatinib] (partner 2 µM)
Outline: as §1

Midostaurin + Tozasertib = compound: CO[C@@H]1[C@H](N(C)C(=O)c2ccccc2)C[C@H]2O[C@]1(C)n1c3ccccc3c3c4c(c5c6ccccc6n2c5c31)C(=O)NC4 [Midostaurin] + Cc1cc(Nc2cc(N3CCN(C)CC3)nc(Sc3ccc(NC(=O)C4CC4)cc3)n2)n[nH]1 [Tozasertib] (partner 0.1 µM)
Outline: as §1

Midostaurin + Linsitinib = compound: CO[C@@H]1[C@H](N(C)C(=O)c2ccccc2)C[C@H]2O[C@]1(C)n1c3ccccc3c3c4c(c5c6ccccc6n2c5c31)C(=O)NC4 [Midostaurin] + C[C@]1(O)C[C@@H](c2nc(-c3ccc4ccc(-c5ccccc5)nc4c3)c3c(N)nccn32)C1 [Linsitinib] (partner 1 µM)
Outline: as §1

UMC-11 gave a relative viability ([1]; first compound 0.0128 µM) of 0.967, a relative viability ([1]; first compound 0.04048 µM) of 1.07 and a relative viability ([1]; first compound 0.128 µM) of 0.943. For the same cell line, the relative viability ([1]; first compound 1.28 µM) was 0.806, the relative viability (Midostaurin + Navitoclax; first compound 0.01 µM) was 0.32 and the relative viability (Midostaurin + Navitoclax; first compound 0.03162 µM) was 0.346. For the same cell line, the relative viability (Midostaurin + Navitoclax; first compound 0.1 µM) was 0.241, the relative viability (Midostaurin + Navitoclax; first compound 0.3162 µM) was 0.177 and the relative viability ([2]; first compound 0.0128 µM) was 1.04. For the same cell line, the relative viability ([2]; first compound 0.04048 µM) was 0.978, the relative viability ([2]; first compound 0.128 µM) was 0.712 and the relative viability ([2]; first compound 1.28 µM) was 0.739. For the same cell line, the relative viability (Midostaurin + Tozasertib; first compound 0.01 µM) was 0.208, the relative viability (Midostaurin + Tozasertib; first compound 0.03162 µM) was 0.18 and the relative viability (Midostaurin + Tozasertib; first compound 0.1 µM) was 0.196. For the same cell line, the relative viability (Midostaurin + Tozasertib; first compound 0.3162 µM) was 0.174, the relative viability (Midostaurin + Linsitinib; first compound 0.01 µM) was 0.984 and the relative viability (Midostaurin + Linsitinib; first compound 0.03162 µM) was 0.998. The relative viability (Midostaurin + Linsitinib; first compound 0.1 µM) was 0.95 and the relative viability (Midostaurin + Linsitinib; first compound 0.3162 µM) was 0.586.
